“Also recorded” adds a separate entry of the source. Like-named read-outs stand apart in the source and are kept apart here.
Tests used:
Assay type in all cases: binding
[1] = target: T1, Torpedo nicotinic Acetylcholine Receptor (Tetronarce californica, UniProt P02710+P02714+P02718); assay: Lateral flow test with two test lines: dose-response competition with biotinylated toxin tracer; conditions: for coloration of the two test lines / inhibition of labelled ligand binding: toxin 0.01 to 1 μM
Description: The device used was a device manufactured according to above example 1, with the exception that two test lines were used instead of one test line and one control line. The control line is used to control if the strip test works properly. We controlled that all the lateral flow test devices were working well and we carried out several tests without toxins that we took as control (Ctrl) that the device was working as expected (FIG. 4).
In the present example several experiments were carried out using different toxins at different concentrations. Through the format two test lines, we tested the potency of the toxins at a given concentration.
In particular, different doses of the snake toxin a-bungarotoxin were tested between 0.01 to 10 μM (FIG. 4A). For that purpose, 1 mL of α-bungarotoxin at a concentration of 10 μM was prepared from the commercial a-bungarotoxin (Sigma; 250 μM) using TBS-BSA buffer (150 mM NaCl, 50 mM Tris-HCl, 0.5% BSA, pH 7.5). Successively, 1 mL of 1 μM α-bungarotoxin was prepared by diluting 10-times the previous concentrated solution using TBS-BSA buffer. Serial 10-times dilutions were performed as described to obtain the 0.1 and 0.01 μM α-bungarotoxin solutions using TBS-BSA buffer.
Different doses of the dinoflagellate toxin pinnatoxin-G ranging from 0.01 to 100 μM were also tested (FIG. 4B). For that purpose, 1 mL of pinnatoxin-G at a concentration of 100 μM was prepared from the synthetic pinnatoxin-G stock (A. Zakarian; 2 mM) using TBS-BSA buffer (150 mM NaCl, 50 mM Tris-HCl, 0.5% BSA, pH 7.5). Successively, 1 mL of 50 μM pinnatoxin-G was prepared by diluting 2-times the previous concentrated solution using TBS-BSA buffer. A solution of 1 μM pinnatoxin-G was obtained by diluting 50-times the previous 50 μM pinnatoxin-G solution using TBS-BSA buffer. Serial 10-times dilutions were performed as described to obtain the 0.1 and 0.01 μM pinnatoxin-G solutions using TBS-BSA buffer.
Finally, different doses of the dinoflagellate toxin 13,19-didesmethyl-spirolide C ranging from 0.01 to 10 μM were also tested. For that purpose, 1 mL of 13,19-didesmethyl-spirolide C at a concentration of 10 μM was prepared from the concentrated 13,19-didesmethyl-spirolide C stock (CIFGA; 100 μM) using TBS-BSA buffer (150 mM NaCl, 50 mM Tris-HCl, 0.5% BSA, pH 7.5). Successively, 1 mL of 1 μM 13,19-didesmethyl-spirolide C was prepared by diluting 10-times the previous concentrated solution using TBS-BSA buffer. Serial 10-times dilutions were performed as described to obtain the 0.1 and 0.01 μM 13,19-didesmethyl-spirolide C solutions using TBS-BSA buffer.
The competition experiments were carried out as disclosed in above example 2.

[2] = target: T1, Torpedo nicotinic Acetylcholine Receptor; assay: as above; conditions: lower concentrations (0.001 to 1 μM)
[3] = target: T1, Torpedo nicotinic Acetylcholine Receptor

T1 sequence (P02718 22-522): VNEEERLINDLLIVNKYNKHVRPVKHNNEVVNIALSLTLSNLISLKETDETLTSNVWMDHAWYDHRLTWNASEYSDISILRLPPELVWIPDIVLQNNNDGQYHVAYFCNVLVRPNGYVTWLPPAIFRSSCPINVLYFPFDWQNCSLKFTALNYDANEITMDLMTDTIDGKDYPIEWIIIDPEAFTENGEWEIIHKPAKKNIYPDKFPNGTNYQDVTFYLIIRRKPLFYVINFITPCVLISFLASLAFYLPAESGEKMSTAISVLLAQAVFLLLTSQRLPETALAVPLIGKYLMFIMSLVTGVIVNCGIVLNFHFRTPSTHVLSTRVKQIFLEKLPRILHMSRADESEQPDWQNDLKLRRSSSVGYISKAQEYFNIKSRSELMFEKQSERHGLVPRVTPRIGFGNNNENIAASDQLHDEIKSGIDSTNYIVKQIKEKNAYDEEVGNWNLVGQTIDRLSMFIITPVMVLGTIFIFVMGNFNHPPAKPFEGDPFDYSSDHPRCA
T1 sequence (P02714 18-506): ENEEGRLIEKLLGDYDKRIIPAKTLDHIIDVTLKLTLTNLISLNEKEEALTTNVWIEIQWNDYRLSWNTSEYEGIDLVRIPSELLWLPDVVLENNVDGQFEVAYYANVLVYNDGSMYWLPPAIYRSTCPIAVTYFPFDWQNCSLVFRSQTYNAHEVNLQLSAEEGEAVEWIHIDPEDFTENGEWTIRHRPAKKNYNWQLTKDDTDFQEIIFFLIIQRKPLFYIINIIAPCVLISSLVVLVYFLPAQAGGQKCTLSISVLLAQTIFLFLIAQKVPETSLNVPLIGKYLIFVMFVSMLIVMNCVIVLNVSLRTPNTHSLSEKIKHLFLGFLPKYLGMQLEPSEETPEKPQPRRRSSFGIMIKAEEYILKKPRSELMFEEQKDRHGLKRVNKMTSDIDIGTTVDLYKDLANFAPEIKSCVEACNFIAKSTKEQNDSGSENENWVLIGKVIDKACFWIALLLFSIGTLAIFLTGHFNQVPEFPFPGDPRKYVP
T1 sequence (P02712 25-493, further chain): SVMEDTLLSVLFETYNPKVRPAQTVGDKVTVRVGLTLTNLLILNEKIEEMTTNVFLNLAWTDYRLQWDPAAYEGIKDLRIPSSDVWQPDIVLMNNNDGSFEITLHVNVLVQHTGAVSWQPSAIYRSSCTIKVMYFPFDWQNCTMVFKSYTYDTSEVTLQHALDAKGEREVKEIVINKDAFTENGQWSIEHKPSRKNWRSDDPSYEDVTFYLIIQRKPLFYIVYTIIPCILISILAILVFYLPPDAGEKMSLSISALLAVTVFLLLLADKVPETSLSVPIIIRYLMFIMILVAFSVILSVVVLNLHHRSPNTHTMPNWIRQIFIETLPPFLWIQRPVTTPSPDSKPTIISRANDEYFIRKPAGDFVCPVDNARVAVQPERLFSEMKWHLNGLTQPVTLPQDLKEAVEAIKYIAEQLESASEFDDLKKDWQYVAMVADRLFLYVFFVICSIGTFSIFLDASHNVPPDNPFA
T1 sequence (P02710 25-461): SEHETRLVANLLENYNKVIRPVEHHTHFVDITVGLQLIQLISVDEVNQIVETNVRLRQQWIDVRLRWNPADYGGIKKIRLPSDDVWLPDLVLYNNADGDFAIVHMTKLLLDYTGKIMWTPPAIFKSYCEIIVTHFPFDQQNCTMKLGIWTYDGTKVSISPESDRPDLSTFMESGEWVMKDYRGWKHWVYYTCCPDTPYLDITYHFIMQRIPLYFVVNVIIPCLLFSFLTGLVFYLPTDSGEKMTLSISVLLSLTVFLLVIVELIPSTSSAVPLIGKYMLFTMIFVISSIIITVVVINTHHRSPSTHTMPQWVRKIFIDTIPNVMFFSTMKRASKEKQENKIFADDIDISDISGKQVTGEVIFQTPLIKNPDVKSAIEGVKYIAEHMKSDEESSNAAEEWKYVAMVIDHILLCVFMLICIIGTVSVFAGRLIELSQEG

α-bungarotoxin
coloration of the two test lines / binding of labelled tracer [1]: inhibited the binding of the labelled tracer in both test lines | coloration of the two test lines versus control test [1]: both test lines are colored showing, however, a less intensity than in the control test | inhibition of binding of the labelled ligand (test lines colorless) [1]: 100%

C=CC1=C[C@@H]2[C@@H]3O[C@]4(C[C@H]5CCC[C@@]6(CC[C@@]7(O[C@@H](CC[C@@]7(C)O)CC(=C)CCCC7=NC[C@H](C)[C@@H](C)C[C@@]72CC1)O6)O5)C[C@@H](C)[C@@H](O)[C@H]3O4 [pinnatoxin-G]
coloration of the two test lines versus control strip ([1]; toxin 50 μM): both test lines were colorless | inhibition of binding of the labelled ligand (test lines colorless) ([1]; toxin 50 μM): 100% | coloration of the two test lines versus control strip ([1]; toxin 100 μM): both test lines were colorless | inhibition of binding of the labelled ligand (test lines colorless) ([1]; toxin 100 μM): 100% | coloration of the two test lines / inhibition of labelled ligand binding [1]: only the second test line was colored with a lower intensity than was shown by the control strip | coloration of the two test lines versus control test [2]: only the upper test line was colored but to a less intensity than in the control test

C=C1CCCC2=NCC(C)C(C)CC23CCC(C2C=C(C)C(=O)O2)=C(C)C3/C=C(\C)C(O)CC2CCC3(CCC4(OC(CCC4O)C1)O3)O2 (centres unmarked) [13,19-didesmethyl-spirolide C]
inhibition of binding of the biotinylated toxin tracer ([1]; all concentrations, 0.01 to 10 μM): inhibited the binding of the biotinylated toxin tracer at all concentration | inhibition of binding of the labelled ligand (test lines colorless) ([1]; toxin 1 μM): 100% | inhibition of binding of the labelled ligand (test lines colorless) ([1]; toxin 10 μM): 100% | coloration of the two test lines / inhibition of labelled ligand binding [1]: strong inhibition

C=C1CCCC2=NCC(C)C(C)CC23CCC(C2C=C(C)C(=O)O2)=C(C)C3/C=C(/C)C(O)CC2CCC3(CCC4(OC(CCC4(C)O)C1)O3)O2 (centres unmarked) [13-desmethyl-spirolide C]
coloration of test line versus control line / inhibition of tracer binding [3]: a colorless or a less-colored band in the test zone; also recorded: inhibits the binding of the tracer
